Data taken from paper PMC5845537 (Frontiers in Pharmacology, 2018).

Experiments:
GABAB receptor = target: T1, GABAB receptor (Rattus norvegicus, UniProt Q9Z0U4); experiment: Ex vivo autoradiography, GABAB receptor saturation binding ([3H]CGP54626), medial prefrontal cortex
T1 construct: 12 μm coronal sections were collected from an area ranging from approximately +4.2 mm to +2.3 mm anterior to Bregma; from tissue; host or cells: rat brain cryosections, medial prefrontal cortex (prelimbic and infralimbic)
T1 sequence (Q9Z0U4 17-960 limits assumed): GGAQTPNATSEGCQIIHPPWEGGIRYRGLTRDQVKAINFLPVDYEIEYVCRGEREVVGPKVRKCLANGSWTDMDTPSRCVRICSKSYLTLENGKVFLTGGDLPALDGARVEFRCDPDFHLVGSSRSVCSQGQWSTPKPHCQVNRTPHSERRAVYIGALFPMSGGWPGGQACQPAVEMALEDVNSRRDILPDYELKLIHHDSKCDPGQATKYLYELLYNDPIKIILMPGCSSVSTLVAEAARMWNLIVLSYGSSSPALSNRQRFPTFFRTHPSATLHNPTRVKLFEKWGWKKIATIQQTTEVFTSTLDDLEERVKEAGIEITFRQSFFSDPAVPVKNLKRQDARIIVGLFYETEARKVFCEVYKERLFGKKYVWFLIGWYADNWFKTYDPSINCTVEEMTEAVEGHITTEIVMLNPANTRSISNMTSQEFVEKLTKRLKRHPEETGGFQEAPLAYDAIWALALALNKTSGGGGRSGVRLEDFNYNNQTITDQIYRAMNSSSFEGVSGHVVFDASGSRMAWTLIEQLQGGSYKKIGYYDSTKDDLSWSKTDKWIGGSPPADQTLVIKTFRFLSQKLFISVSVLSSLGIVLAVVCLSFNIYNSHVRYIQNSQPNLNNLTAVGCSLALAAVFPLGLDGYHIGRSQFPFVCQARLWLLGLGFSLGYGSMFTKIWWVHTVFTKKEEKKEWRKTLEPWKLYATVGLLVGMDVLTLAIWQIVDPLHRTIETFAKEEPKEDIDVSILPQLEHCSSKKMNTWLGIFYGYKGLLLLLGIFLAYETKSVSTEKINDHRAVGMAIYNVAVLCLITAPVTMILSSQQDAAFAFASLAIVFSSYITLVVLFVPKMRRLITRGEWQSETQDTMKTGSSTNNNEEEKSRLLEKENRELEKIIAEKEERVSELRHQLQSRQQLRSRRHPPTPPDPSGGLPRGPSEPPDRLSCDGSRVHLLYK
T1 sequence (O88871 41-940 partner): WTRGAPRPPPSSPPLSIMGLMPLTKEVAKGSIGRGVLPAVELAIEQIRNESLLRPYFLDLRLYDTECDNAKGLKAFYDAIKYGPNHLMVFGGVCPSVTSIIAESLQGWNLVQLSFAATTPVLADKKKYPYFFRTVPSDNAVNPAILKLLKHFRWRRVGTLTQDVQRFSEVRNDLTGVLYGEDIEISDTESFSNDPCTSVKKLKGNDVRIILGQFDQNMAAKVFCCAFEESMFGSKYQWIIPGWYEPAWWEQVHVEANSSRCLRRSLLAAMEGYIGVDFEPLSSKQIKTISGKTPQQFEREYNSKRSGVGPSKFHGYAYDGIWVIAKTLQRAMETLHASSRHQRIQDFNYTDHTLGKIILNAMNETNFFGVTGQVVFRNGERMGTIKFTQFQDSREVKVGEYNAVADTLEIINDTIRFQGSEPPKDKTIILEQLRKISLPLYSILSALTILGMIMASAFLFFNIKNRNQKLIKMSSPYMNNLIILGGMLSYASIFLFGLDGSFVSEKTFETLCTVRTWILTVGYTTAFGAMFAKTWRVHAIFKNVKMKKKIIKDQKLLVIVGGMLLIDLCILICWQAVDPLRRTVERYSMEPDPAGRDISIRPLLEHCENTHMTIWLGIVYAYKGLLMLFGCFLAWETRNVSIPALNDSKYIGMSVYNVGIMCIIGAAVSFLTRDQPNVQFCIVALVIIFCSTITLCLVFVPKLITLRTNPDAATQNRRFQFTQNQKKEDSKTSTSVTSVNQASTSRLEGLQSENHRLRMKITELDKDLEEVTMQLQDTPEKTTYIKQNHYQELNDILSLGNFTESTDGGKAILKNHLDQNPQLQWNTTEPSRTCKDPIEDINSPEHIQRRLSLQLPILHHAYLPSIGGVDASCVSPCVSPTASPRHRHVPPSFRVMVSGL
Excerpt: Rats used in ex vivo autoradiography (EVA) experiments were randomly assigned to one of four experimental groups characterized by either subchronic saline or PCP (as described above) along with either vehicle or vortioxetine-infused food (1.8 g vortioxetine/kg food weight, as described in the attentional set shifting task). On day 8 of PCP withdrawal, rats were anesthetized using CO2 and killed by decapitation. Brains were quickly and gently removed from the skull, flash frozen on powdered dry ice, and stored at -20°C until sectioning. Later, 12 μm coronal sections were collected from an area ranging from approximately +4.2 mm to +2.3 mm anterior to Bregma ([Paxinos and Watson, 1998]) using a cryostat (MicroM, Germany) and were thaw-mounted on glass microscope slides. This range of coronal slices was chosen in order to study the prelimbic and infralimbic subregions of the medial prefrontal cortex, given the importance of these regions in tests of executive function such as the attentional set shifting task ([Ng et al., 2007]). After the tissue mounted on the microscope slides had dried thoroughly (in order to reduce damage from freezing), slides were packed into slide boxes with desiccator pellets, and stored at -20°C for use in EVA saturation binding and competition experiments.
Each of the EVA procedures used in this study are variations on a similar theme. On the day of an experiment, slide-boxes were defrosted under a constant stream of air at room temperature until the boxes were dry and equilibrated with the environment in terms of temperature. This step was undertaken in order to ensure brain tissue was not damaged by frosting due to a sudden change in humidity. Prior to any binding experiments, slides were preincubated in the appropriate preincubation buffer and dried at room temperature. Subsequently, tissue was incubated in an assay buffer containing a radioligand appropriate for the receptor of interest, then rinsed in assay buffer, and dried overnight in a vacuum desiccator. Specific information on the contents of the preincubation buffers, assay buffers and other assay conditions are listed in Table 2. Finally, slides were opposed to a tritium-sensitive phosphor screen (Fuji imaging plate, GE Healthcare, Pittsburgh, PA, United States) for 5 days before being read in a phosphorimager (Typhoon FLA7000, GE Healthcare). Analysis methods are listed below under statistical analyses.
In saturation binding experiments, the concentration of the relevant radioligand in the assay buffer was systematically varied in order to determine the KD and Bmax of the receptor in question. At each radioligand concentration, the non-specific binding was determined on a separate slide by including a high concentration of a non-radioactive competitor ligand in the assay buffer along with the radioligand. For GABAA receptor saturation binding experiments, [^3H]muscimol was examined in quarter log steps ranging from 0.56 to 300 nM. For GABAB receptor saturation binding experiments, [^3H]CGP54626 was examined in quarter log steps ranging from 0.17 to 100 nM.
For saturation binding studies, the primary dependent measures were pKD and Bmax. First, a standard curve was generated by measuring optical intensity from a slide of tritium standards (American Radiolabeled Chemicals, St. Louis, MO, United States) included in the slide cassette during exposure. A linear regression was performed to determine the relationship between intensity and bound radioactivity (measured on the standards in units of μCi/g). Next, average intensity values from the non-specific bound condition for each concentration of radioligand was subtracted from intensity values from the total bound condition to produce a measure of specific binding for each radioligand concentration. These optical intensity values were transformed into bound radioactivity (expressed as nCi/mg) measurements by interpolation from the standard curve noted above. […]

Sprague-Dawley rats = experiment: Rat object recognition (OR) task after subchronic PCP; assay type: in vivo; settings: p < 0.05
Procedure: Subchronic PCP treatment: The subPCP administration regimen used in rats was conducted as described in ([Goetghebeur and Dias, 2009]), which is a reliable method for inducing deficits in our hands. Rats in the subPCP experiments received injections of 5 mg/mL PCP or vehicle (saline) s.c. at a 1 mL/kg injection volume twice per day for 7 days. […] The mouse subPCP regimen was conducted as described in [Pedersen et al. (2014)]. Briefly, mice received vehicle or PCP (1.3 mg/mL concentration, 10 mL/kg injection volume) s.c once per day for 14 days followed by a 7-day washout prior to experimentation.
The behavioral procedures for the rat OR task were conducted as described in [du Jardin et al. (2014)]. […] OR task sessions were recorded by a digital camera situated above the open field. Exploration time for each object was recorded with a stopwatch from the videos. […]
The primary dependent measure for the OR and object placement tasks was a novel object or novel placement preference score, which were calculated from raw object investigation times using the following equation: Preference Score = ITN/(ITN + ITF)^∗100, where ITN represents the investigation time for the novel object or placement, and ITF represents the investigation for the familiar object or placement. Total exploration times from the information and test trials were analyzed for OP and OR experiments. […]

| SMILES | effect of treatment on [3H]CGP54626 Bmax (GABAB receptor) (GABAB receptor; subPCP vs saline/vehicle group, p < 0.05) | OR performance (novel object preference score) (Sprague-Dawley rats; subPCP alone vs vehicle-treated controls) | [3H]CGP54626 Bmax (GABAB receptor), PCP/vortioxetine vs PCP/vehicle (GABAB receptor; subchronic vortioxetine combined with subPCP) | attenuation of subPCP-induced OR impairment (preference score) (Sprague-Dawley rats; subPCP-treated rats, acute 10 mg/kg 1 h s.c.) |
| --- | --- | --- | --- | --- |
| Cl.c1ccc(C2(N3CCCCC3)CCCCC2)cc1 [PCP, 1-(1-phenylcyclohexyl)-piperidine hydrochloride] | significant reductions | significant impairments |  |  |
| Cc1ccc(Sc2ccccc2N2CCNCC2)c(C)c1 [vortioxetine] |  |  | no significant differences | significantly attenuated |
